Legend:
Assay type in all cases: cell-based
Settings in all cases: SRB, 48 hours exposure
K-562 = test: Inhibition of cells growth by colorimetric assay (SRB), K-562
Method: (§1) 2°.—Inhibition of Cells Growth by Colorimetric Assay.
(§2) A colorimetric type of assay, using sulforhodamine B (SRB) reaction has been adapted for a quantitative measurement of cell growth and viability [following the technique described by Philip Skehan, et al. (1990), New colorimetric cytotoxicity assay for anticancer drug screening, J. Natl. Cancer Inst., 82:1107-1112]
(§3) This form of the assay employs 96 well cell culture microplates of 9 mm diameter (Faircloth, 1988; Mosmann, 1983). Most of the cell lines are obtained from American Type Culture Collection (ATCC) derived from different human cancer types.
(§4) Cells are maintained in RPMI 1640 10% FBS, supplemented with 0.1 g/l penicillin and 0.1 g/l streptomycin sulfate and then incubated at 37° C., 5% CO2 and 98% humidity. For the experiments, cells were harvested from subconfluent cultures using trypsin and resuspended in fresh medium before plating.
(§5) Cells are seeded in 96 well microtiter plates, at 5×10^3 cells per well in aliquots of 195 μl medium, and they are allowed to attach to the plate surface by growing in drug free medium for 18 hours. Afterward, samples are added in aliquots of 5 μl in a ranging from 10 to 10^−8 μg/ml, dissolved in DMSO/EtOH/PBS (0.5:0.5:99). After 48 hours exposure, the antitumor effect are measured by the SRB methodology: cells are fixed by adding 50 μl of cold 50% (wt/vol) trichloroacetic acid (TCA) and incubating for 60 minutes at 4° C. Plates are washed with deionized water and dried. One hundred μl of SRB solution (0.4% wt/vol in 1% acetic acid) is added to each microtiter well and incubated for 10 minutes at room temperature. Unbound SRB is removed by washing with 1% acetic acid. Plates are air dried and bound stain is solubilized with Tris buffer. Optical densities are read on a automated spectrophotometric plate reader at a single wavelength of 490 nm.
(§6) The values for mean+/−SD of data from triplicate wells are calculated. Some parameters for cellular responses can be calculated: GI=growth inhibition, TGI=total growth inhibition (cytostatic effect) and LC=cell killing (cytotoxic effect).
(§7) Obtained results may predict the usefulness of a certain drug as a potential cancer treatment. For this technique, compounds which show GI50 values smaller than 10 μg/ml are selected to continue with further studies. GI50's data allow to predict that not only could a drug be cystostatic, but also it could have a potential in terms of tumor reduction.

A-549 = test: Inhibition of cells growth by colorimetric assay (SRB), A-549
Summary of the method: (§8)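 Cells in RPMI 1640 with 10% FBS were seeded at 5×10^3 per well, allowed 18 h to attach, then exposed to compound (10 to 10^−8 μg/ml, in DMSO/EtOH/PBS 0.5:0.5:99) for 48 h. After TCA fixation and SRB staining, bound dye was solubilized in Tris and OD read at 490 nm; GI, TGI and LC derived from triplicates.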

SK-MEL-28 = test: Inhibition of cells growth by colorimetric assay (SRB), SK-MEL-28
Method: as §1, §2, §3, §4, §5, §6, §7

HT-29 = test: Inhibition of cells growth by colorimetric assay (SRB), HT-29
Summary of the method: as §8

LoVo = test: Inhibition of cells growth by colorimetric assay (SRB), LoVo
Method: as §1, §2, §3, §4, §5, §6, §7

LoVo-Dox = test: Inhibition of cells growth by colorimetric assay (SRB), LoVo-Dox
Method: as §1, §2, §3, §4, §5, §6, §7

DU-145 = test: Inhibition of cells growth by colorimetric assay (SRB), DU-145
Method: as §1, §2, §3, §4, §5, §6, §7

LNCaP = test: Inhibition of cells growth by colorimetric assay (SRB), LNCaP
Method: as §1, §2, §3, §4, §5, §6, §7

SK-BR-3 = test: Inhibition of cells growth by colorimetric assay (SRB), SK-BR-3
Method: as §1, §2, §3, §4, §5, §6, §7

IGROV-1 = test: Inhibition of cells growth by colorimetric assay (SRB), IGROV-1
Method: as §1, §2, §3, §4, §5, §6, §7

IGROV-ET = test: Inhibition of cells growth by colorimetric assay (SRB), IGROV-ET
Method: as §1, §2, §3, §4, §5, §6, §7

SK-OV-3 = test: Inhibition of cells growth by colorimetric assay (SRB), SK-OV-3
Method: as §1, §2, §3, §4, §5, §6, §7

PANC-1 = test: Inhibition of cells growth by colorimetric assay (SRB), PANC-1
Method: as §1, §2, §3, §4, §5, §6, §7

HMEC1 = test: Inhibition of cells growth by colorimetric assay (SRB), HMEC1
Method: as §1, §2, §3, §4, §5, §6, §7

## C=COC(=O)N1CCc2cc(O)c(OC)cc2[C@@]12CS[C@@H]1c3c(OC(C)=O)c(C)c4c(c3[C@H](COC2=O)N2C1[C@H]1c3c(cc(C)c(OC)c3O)C[C@@H]([C@@H]2O)N1C)OCO4 (stereo partly drawn) [Compound 95]
K-562; Homo sapiens, K562, 48 h, K-562, read-out: K-562 GI50
  GI50: 15.3 nM
K-562; Homo sapiens, K562, 48 h, read-out: K-562 LC50, K-562
  LC50 (50% cell killing): 2220 nM
K-562; K-562
  K-562 TGI: 5.30E-08
A-549; A-549
  A-549 TGI: 5.55E-08
A-549; Homo sapiens, A549, 48 h, A-549, read-out: A-549 GI50
  GI50: 26.8 nM
A-549; Homo sapiens, A549, 48 h, read-out: A-549 LC50, A-549
  LC50 (concentration for 50% cell killing): 147 nM
SK-MEL-28; Homo sapiens, SK-MEL-28, 48 h, MEL-28, read-out: MEL-28 GI50
  GI50: 25.2 nM
SK-MEL-28; Homo sapiens, SK-MEL-28, 48 h, read-out: MEL-28 LC50, MEL-28
  CC50: 83.2 nM
SK-MEL-28; MEL-28
  MEL-28 TGI: 4.58E-08
HT-29; HT-29
  HT-29 TGI: 1.27E-07
HT-29; Homo sapiens, HT-29, 48 h, HT-29, read-out: HT-29 GI50
  GI50: 40.4 nM
HT-29; Homo sapiens, HT-29, 48 h, read-out: HT-29 LC50, HT-29
  LC50 (concentration for 50% cell killing): 12000 nM
LoVo; Homo sapiens, LoVo, 48 h, LOVO, read-out: LOVO GI50
  GI50: 26.2 nM
LoVo; Homo sapiens, LoVo, 48 h, read-out: LOVO LC50, LOVO
  LC50 (concentration for 50% cell killing): 111 nM
LoVo; LOVO
  LOVO TGI: 5.40E-08
LoVo-Dox; Homo sapiens, 48 h, LOVO-DOX, read-out: LOVO-DOX GI50
  GI50: 240 nM
LoVo-Dox; Homo sapiens, 48 h, read-out: LOVO-DOX LC50, LOVO-DOX
  CC50: 12000 nM
LoVo-Dox; LOVO-DOX
  LOVO-DOX TGI: 8.68E-07
DU-145; DU-145
  DU-145 TGI: 8.92E-08
DU-145; Homo sapiens, DU-145, 48 h, DU-145, read-out: DU-145 GI50
  GI50: 37.6 nM
DU-145; Homo sapiens, DU-145, 48 h, read-out: DU-145 LC50, DU-145
  CC50: 1010 nM
LNCaP; Homo sapiens, LNCaP, 48 h, read-out: LNCAP GI50, LNCAP
  GI50: 17.7 nM
LNCaP; Homo sapiens, LNCaP, 48 h, read-out: LNCAP LC50, LNCAP
  CC50: 66 nM
LNCaP; LNCAP
  LNCAP TGI: 3.41E-08
SK-BR-3; Homo sapiens, SK-BR-3, 48 h, SK-BR3, read-out: SK-BR3 GI50
  GI50: 29.8 nM
SK-BR-3; Homo sapiens, SK-BR-3, 48 h, read-out: SK-BR3 LC50, SK-BR3
  CC50: 522 nM
SK-BR-3; SK-BR3
  SK-BR3 TGI: 7.62E-08
IGROV-1; Homo sapiens, IGROV-1, 48 h, IGROV, read-out: IGROV GI50
  GI50: 28 nM
IGROV-1; Homo sapiens, IGROV-1, 48 h, read-out: IGROV LC50, IGROV
  CC50: 1090 nM
IGROV-1; IGROV
  IGROV TGI: 6.67E-08
IGROV-ET; Homo sapiens, 48 h, IGROV-ET, read-out: IGROV-ET GI50
  GI50: 50.5 nM
IGROV-ET; Homo sapiens, 48 h, read-out: IGROV-ET LC50, IGROV-ET
  CC50: 12000 nM
IGROV-ET; IGROV-ET
  IGROV-ET TGI: 1.16E-07
SK-OV-3; Homo sapiens, SK-OV-3, 48 h, SK-OV3, read-out: SK-OV3 GI50
  GI50: 28.1 nM
SK-OV-3; Homo sapiens, SK-OV-3, 48 h, read-out: SK-OV3 LC50, SK-OV3
  LC50: 368 nM
SK-OV-3; SK-OV3
  SK-OV3 TGI: 6.59E-08
PANC-1; Homo sapiens, PANC-1, 48 h, PANC-1, read-out: PANC-1 GI50
  GI50: 38.8 nM
PANC-1; Homo sapiens, PANC-1, 48 h, read-out: PANC-1 LC50, PANC-1
  LC50 (concentration for 50% net cell kill): 1090 nM
PANC-1; PANC-1
  PANC-1 TGI: 1.08E-07
HMEC1; HMEC-1
  HMEC-1 TGI: 2.80E-08
HMEC1; Homo sapiens, HMEC-1, 48 h, HMEC-1, read-out: HMEC-1 GI50
  GI50: 9.36 nM
HMEC1; Homo sapiens, HMEC-1, 48 h, read-out: HMEC-1 LC50, HMEC-1
  LC50: 75.6 nM

Reference: patent US7759345B2, “Antitumoral derivatives of ET-743” (priority 2001, dated 2010)
